Read-outs that look alike come from different tables or passages of the source.
Experiments:
[1] = test system: HBsAg secretion in HepG2.2.15 cells; assay: HBsAg assay (chemiluminescence immunoassay of secreted HBsAg in culture supernatant); format: cell-based, HBV; settings: concentration at which HBsAg secretion was reduced by 50% compared to the no drug control, read-out: IC50 (HBsAg assay)
In short: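 IC50 taken from dose-response curves as the concentration halving secreted HBsAg relative to DMSO control. Measured by chemiluminescence immunoassay of culture supernatant from constitutively HBV-expressing HepG2.2.15 cells, seeded at 1.5×10^4/well in duplicate and exposed to three-fold serial compound dilutions at 1% final DMSO.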

[2] = test system: HBV DNA production in HepG2.2.15 cells; assay: HBV DNA assay (real-time qPCR/TaqMan of extracellular HBV DNA in cell supernatant); format: cell-based; settings: Hepatitis B virus, 144 h, extracellular HBV DNA copy number, six days after initial administration, read-out: IC50 (Anti HBV DNA production activity)
Protocol: HepG2.2.15 cells (Acs et al. Proc Natl Acad Sci USA, 84, (1987), 4641-4), a constitutively HBV-expressing cell line were cultured in DMEM+Glutamax-I medium (Invitrogen, Carlsbad, Calif., USA), supplemented with 10% fetal bovine serum (Invitrogen) and G418 (Invitrogen) at a final concentration of 200 mg/L and maintained in 5% CO2 at 37° C.
The assay employs real-time qPCR (TaqMan) to directly measure extracellular HBV DNA copy number in the cell supernatant. HepG2.2.15 cells were plated in 96-well microtiter plates before treatment with complete medium (DMEM, Glutamax, 10% FBS, 1% Penicillin/Streptomycin, 250 μg/mL Genetycin, final DMSO concentration is 1%). Only the interior wells were utilized to reduce “edge effects” observed during cell culture, the exterior wells were filled with complete medium to help minimize sample evaporation. The HepG2.2.15 cells were treated 1 h later with various concentrations of a test compound in duplicate (top concentration used at 5 μM, 2 μM or 0.5 μM according to the HBsAg IC50 observed, with ⅓ successive dilutions (total of 10 dilutions). Six days following the initial administration of the test compound, the cell culture supernatant was collected; DNA extraction was performed by automated system (Magnapure) and then used in a real-time qPCR/TaqMan assay to determine HBV DNA copy numbers. Antiviral activity was calculated from the reduction in HBV DNA levels (IC50). The compounds of the present invention were tested for their capacity to inhibit HBV DNA as described herein.

[3] = Hepatitis B virus, HepG2.2.15, HepG2.2.15 cells

Structure (SMILES)	IC50 ([1]; HepG2.2.15 cells) [nM]	IC50 [2] [nM]	IC50 [1, 3] [nM]
CC1c2cnc(-c3ncccn3)nc2CCN1c1cc(N2CCCC2)cc(F)n1 (single isomer, unassigned; (-)) [Example 200, (−)-6-(6-fluoro-4-pyrrolidin-1-yl-2-pyridyl)-5-methyl-2-pyrimidin-2-yl-7,8-dihydro-5H-pyrido[4,3-d]pyrimidine]	2	< 1	–
CC1c2cnc(-c3ncccn3)nc2CCN1c1cc(N2CCNC(=O)C2)cc(F)n1 (stereo not drawn) [Example 215, 4-[2-fluoro-6-(5-methyl-2-pyrimidin-2-yl-7,8-dihydro-5H-pyrido[4,3-d]pyrimidin-6-yl)-4-pyridyl]piperazin-2-one]	–	0.81	64
CC1c2cnc(-c3ncccn3)nc2CCN1c1cc(F)c(F)c(OCCCCCCC(N)=O)c1 (stereo not drawn) [Example 87, 7-[2,3-difluoro-5-(5-methyl-2-pyrimidin-2-yl-7,8-dihydro-5H-pyrido[4,3-d]pyrimidin-6-yl)phenoxy]heptanamide]	–	10	73
CNc1cc(F)nc(N2CCc3nc(-c4ncccn4)ncc3C2C)c1 (single isomer, unassigned; (-)) [Example 203, (−)-2-fluoro-N-methyl-6-[5-methyl-2-pyrimidin-2-yl-7,8-dihydro-5H-pyrido[4,3-d]pyrimidin-6-yl]pyridin-4-amine]	–	0.16	6
CC1c2cnc(-c3ncccn3)nc2CCN1c1cc(F)c(F)c(OCCCCC(N)=O)c1 (stereo not drawn) [Example 64, 5-[2,3-difluoro-5-(5-methyl-2-pyrimidin-2-yl-7,8-dihydro-5H-pyrido[4,3-d]pyrimidin-6-yl)phenoxy]pentanamide]	–	4	62
CC1c2cnc(-c3ncccn3)nc2CCN1c1cc(F)cc(N2CCNC(=O)C2)n1 (stereo not drawn) [Example 214, 4-[4-fluoro-6-(5-methyl-2-pyrimidin-2-yl-7,8-dihydro-5H-pyrido[4,3-d]pyrimidin-6-yl)-2-pyridyl]piperazin-2-one]	–	7.2	22
COc1cc(N2CCc3nc(-c4ncccn4)ncc3C2C)cc(Cl)c1F (single isomer, unassigned; (-)) [Example 43, (−)-6-(3-chloro-4-fluoro-5-methoxy-phenyl)-5-methyl-2-pyrimidin-2-yl-7,8-dihydro-5H-pyrido[4,3-d]pyrimidine]	18	8	–
CC1c2cnc(-c3ncccn3)nc2CCN1c1cc(N(C)C)cc(F)n1 (single isomer, unassigned; (-)) [Example 207, (−)-2-fluoro-N,N-dimethyl-6-[5-methyl-2-pyrimidin-2-yl-7,8-dihydro-5H-pyrido[4,3-d]pyrimidin-6-yl]pyridin-4-amine]	2	0.34	–
COc1cc(N2CCc3nc(-c4ncccn4)ncc3C2C)cc(F)c1F (single isomer, unassigned; (-)) [Example 17, (−)-6-(3,4-difluoro-5-methoxy-phenyl)-5-methyl-2-pyrimidin-2-yl-7,8-dihydro-5H-pyrido[4,3-d]pyrimidine]	8	2	–
CC1c2cnc(-c3ncccn3)nc2CCN1c1cc(F)c(F)c(OCCCCCCC(=O)O)c1 (stereo not drawn) [Example 86, 7-[2,3-difluoro-5-(5-methyl-2-pyrimidin-2-yl-7,8-dihydro-5H-pyrido[4,3-d]pyrimidin-6-yl)phenoxy]heptanoic acid]	–	1	100
CC1c2cnc(-c3ncccn3)nc2CCN1c1cc(OCC(F)F)cc(F)n1 (stereo not drawn) [Example 149, 6-[4-(2,2-difluoroethoxy)-6-fluoro-2-pyridyl]-5-methyl-2-pyrimidin-2-yl-7,8-dihydro-5H-pyrido[4,3-d]pyrimidine]	–	1	10
COc1cc(F)cc(N2CCc3nc(-c4ncccn4)ncc3C2C)c1 (single isomer, unassigned; (-)) [Example 73, (−)-6-(3-fluoro-5-methoxy-phenyl)-5-methyl-2-pyrimidin-2-yl-7,8-dihydro-5H-pyrido[4,3-d]pyrimidine]	18	5	–
CC1c2cnc(-c3ncccn3)nc2CCN1c1cc(OCCCCCC(N)=O)cc(F)n1 (single isomer, unassigned; (-)) [Example 165, (−)-6-[[2-fluoro-6-[5-methyl-2-pyrimidin-2-yl-7,8-dihydro-5H-pyrido[4,3-d]pyrimidin-6-yl]-4-pyridyl]oxy]hexanamide]	–	< 1	13
CC1c2cnc(-c3ccccn3)nc2CCN1c1cc(F)c(F)c(OCCCCCO)c1 (stereo not drawn) [Example 25, 5-[2,3-difluoro-5-[5-methyl-2-(2-pyridyl)-7,8-dihydro-5H-pyrido[4,3-d]pyrimidin-6-yl]phenoxy]pentan-1-ol]	–	–	33

Reference: patent US9845322B2 (Hoffmann-La Roche Inc., priority 2016, dated 2017)
